Structures are written as SMILES. *1 amine or outer side, *2 acyl side, *3 side chain or, on linkers, in order; H or OH if unused. Where a SMILES comes first, the peptide text is derived from it. Side-chain parts run from the residue outwards. [ ]: non-standard residue; d: D form. The star is where a group is joined. C20 diacid = O=C(O)CCCCCCCCCCCCCCCCCCC(=O)*; γGlu = O=C(O)[C@H](CCC(=O)[*:2])N[*:1]; 4Pal = N[C@@H](Cc1ccncc1)C(=O)O; αMeL = CC(C)C[C@](C)(N)C(=O)O; Orn = NCCC[C@H](N)C(=O)O; AEEA = NCCOCCOCC(=O)O; Aib = CC(C)(N)C(=O)O

What all share (assay): cAMP functional assay (HTRF) in HEK293 cells in presence of 0.1% casein
What all share (assay type): cell-based

Experiment [1] deals with T1, human glucose-dependent insulinotropic peptide receptor (GIPR) (Homo sapiens, UniProt P48546).
T1 construct: expressed in transfected cells; host or cells: HEK293
T1 sequence (P48546 22-466): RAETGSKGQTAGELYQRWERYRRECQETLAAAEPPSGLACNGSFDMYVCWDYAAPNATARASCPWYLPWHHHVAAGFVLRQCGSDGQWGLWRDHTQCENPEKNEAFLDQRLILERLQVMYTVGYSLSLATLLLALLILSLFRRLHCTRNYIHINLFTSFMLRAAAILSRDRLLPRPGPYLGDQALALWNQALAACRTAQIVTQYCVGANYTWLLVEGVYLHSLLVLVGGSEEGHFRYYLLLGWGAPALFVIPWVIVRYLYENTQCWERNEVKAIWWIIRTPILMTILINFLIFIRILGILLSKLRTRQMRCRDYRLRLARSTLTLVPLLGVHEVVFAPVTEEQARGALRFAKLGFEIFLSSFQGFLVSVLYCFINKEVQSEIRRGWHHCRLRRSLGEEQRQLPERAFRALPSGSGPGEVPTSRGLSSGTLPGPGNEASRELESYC
The settings on record: HEK293 cells expressing human GIPR, geometric mean, read-out: hGIPR cAMP Rel EC50 nM (SEM, n).

Experiment [2] concerns the target T2, human glucagon receptor (GcgR) (Homo sapiens, UniProt P47871).
T2 construct: expressed in transfected cells; host or cells: HEK293
The settings on record: HEK293 cells expressing human GcgR, geometric mean, read-out: hGcgR cAMP Rel EC50 nM (SEM, n).

The target of experiment [3] is T3, human GLP-1 receptor (GLP-1R) (Homo sapiens, UniProt P43220).
T3 construct: expressed in transfected cells; host or cells: HEK293
T3 sequence (P43220 24-463): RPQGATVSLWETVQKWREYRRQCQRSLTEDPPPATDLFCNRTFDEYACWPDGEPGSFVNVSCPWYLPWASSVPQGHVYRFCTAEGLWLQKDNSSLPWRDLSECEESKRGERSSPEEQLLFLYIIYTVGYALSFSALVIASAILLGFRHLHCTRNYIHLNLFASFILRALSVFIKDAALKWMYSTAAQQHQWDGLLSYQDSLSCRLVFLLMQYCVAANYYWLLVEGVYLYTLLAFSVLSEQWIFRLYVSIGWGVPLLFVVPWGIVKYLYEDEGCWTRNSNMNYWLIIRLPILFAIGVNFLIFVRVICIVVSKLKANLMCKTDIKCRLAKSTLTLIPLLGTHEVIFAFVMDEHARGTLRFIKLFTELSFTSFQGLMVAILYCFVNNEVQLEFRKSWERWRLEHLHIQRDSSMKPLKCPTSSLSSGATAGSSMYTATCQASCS
The settings on record: HEK293 cells expressing human GLP-1R, geometric mean, read-out: hGLP1R cAMP Rel EC50 nM (SEM, n).

T2 sequence (P47871 26-477): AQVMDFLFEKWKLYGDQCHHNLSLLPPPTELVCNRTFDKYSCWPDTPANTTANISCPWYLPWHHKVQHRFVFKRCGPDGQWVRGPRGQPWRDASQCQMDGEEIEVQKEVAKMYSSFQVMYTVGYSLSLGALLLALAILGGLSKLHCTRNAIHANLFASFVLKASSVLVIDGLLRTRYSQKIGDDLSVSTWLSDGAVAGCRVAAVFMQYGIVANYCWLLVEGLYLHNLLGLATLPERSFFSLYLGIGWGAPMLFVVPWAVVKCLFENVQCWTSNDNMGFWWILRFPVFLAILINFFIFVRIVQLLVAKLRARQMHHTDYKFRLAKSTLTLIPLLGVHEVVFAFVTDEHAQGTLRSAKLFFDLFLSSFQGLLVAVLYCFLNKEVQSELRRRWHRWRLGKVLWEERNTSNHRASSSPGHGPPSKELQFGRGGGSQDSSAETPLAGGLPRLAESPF

`CC[C@H](C)[C@H](NC(=O)[C@H](Cc1ccccc1)NC(=O)[C@@H](NC(=O)CNC(=O)[C@H](CCC(=O)O)NC(=O)C(C)(C)NC(=O)[C@@H](N)Cc1ccc(O)cc1)[C@@H](C)O)C(=O)N[C@@H](CO)C(=O)N[C@@H](CC(=O)O)C(=O)N[C@@H](Cc1ccc(O)cc1)C(=O)N[C@@H](CO)C(=O)N[C@H](C(=O)N[C@@](C)(CC(C)C)C(=O)N[C@@H](CC(C)C)C(=O)N[C@@H](CC(=O)O)C(=O)N[C@@H](CCCCN)C(=O)N[C@@H](CCCCNC(=O)COCCOCCNC(=O)COCCOCCNC(=O)CC[C@H](NC(=O)CCCCCCCCCCCCCCCCCCC(=O)O)C(=O)O)C(=O)N[C@@H](Cc1c[nH]cn1)C(=O)N[C@@H](CCC(N)=O)C(=O)NC(C)(C)C(=O)N[C@@H](CC(=O)O)C(=O)N[C@@H](Cc1ccccc1)C(=O)N[C@H](C(=O)N[C@@H](CCC(=O)O)C(=O)N[C@@H](Cc1ccncc1)C(=O)N[C@@H](CC(C)C)C(=O)N[C@@H](CC(C)C)C(=O)N[C@@H](C)C(=O)N[C@@H](C)C(=O)NCC(=O)N1CCC[C@H]1C(=O)N[C@@H](CO)C(=O)N[C@@H](CO)C(=O)NCC(=O)N[C@@H](C)C(=O)N1CCC[C@H]1C(=O)N1CCC[C@H]1C(=O)N1CCC[C@H]1C(=O)N[C@@H](CO)C(N)=O)C(C)C)[C@@H](C)CC` [Example 78]: the EC50 is 0.0125 nM in experiment [1], 3000 nM in experiment [2] and over 5000 nM in experiment [3].
Consider `CC[C@H](C)[C@H](NC(=O)[C@H](Cc1ccccc1)NC(=O)[C@@H](NC(=O)CNC(=O)[C@H](CCC(=O)O)NC(=O)C(C)(C)NC(=O)[C@@H](N)Cc1ccc(O)cc1)[C@@H](C)O)C(=O)N[C@@H](CO)C(=O)N[C@@H](CC(=O)O)C(=O)N[C@@H](Cc1ccc(O)cc1)C(=O)N[C@@H](CO)C(=O)N[C@H](C(=O)N[C@@](C)(CC(C)C)C(=O)N[C@@H](CC(C)C)C(=O)N[C@@H](CC(=O)O)C(=O)N[C@@H](CCCCN)C(=O)N[C@@H](CCCCNC(=O)COCCOCCNC(=O)COCCOCCNC(=O)CC[C@H](NC(=O)CCCCCCCCCCCCCCCCCCC(=O)O)C(=O)O)C(=O)N[C@@H](Cc1c[nH]cn1)C(=O)N[C@@H](CCC(N)=O)C(=O)NC(C)(C)C(=O)N[C@@H](CC(=O)O)C(=O)N[C@@H](Cc1ccccc1)C(=O)N[C@H](C(=O)N[C@@H](CCC(=O)O)C(=O)N[C@@H](Cc1ccncc1)C(=O)N[C@@H](CC(C)C)C(=O)N[C@@H](CC(C)C)C(=O)N[C@@H](C)C(=O)N[C@@H](CCC(N)=O)C(=O)NCC(=O)N1CCC[C@H]1C(=O)N[C@@H](CO)C(=O)N[C@@H](CO)C(=O)NCC(=O)N[C@@H](C)C(=O)N1CCC[C@H]1C(=O)N1CCC[C@H]1C(=O)N1CCC[C@H]1C(=O)N[C@@H](CO)C(N)=O)C(C)C)[C@@H](C)CC` [Example 79] (H-Y[Aib]EGTFISDYSI[αMeL]LDKK([AEEA-AEEA-γGlu-C20 diacid])HQ[Aib]DFVE[4Pal]LLAQGPSSGAPPPS-NH2), for which the EC50 in experiment [1] is 0.0316 nM; in experiment [2], over 5000 nM; in experiment [3] it was over 5000 nM.
In the case of `CC[C@H](C)[C@H](NC(=O)[C@H](Cc1ccccc1)NC(=O)[C@@H](NC(=O)CNC(=O)[C@H](CCC(=O)O)NC(=O)C(C)(C)NC(=O)[C@@H](N)Cc1ccc(O)cc1)[C@@H](C)O)C(=O)N[C@@H](CO)C(=O)N[C@@H](CC(=O)O)C(=O)N[C@@H](Cc1ccc(O)cc1)C(=O)N[C@@H](CO)C(=O)N[C@H](C(=O)N[C@@](C)(CC(C)C)C(=O)N[C@@H](CC(C)C)C(=O)N[C@@H](CC(=O)O)C(=O)N[C@@H](CCCN)C(=O)N[C@@H](CCCCNC(=O)COCCOCCNC(=O)COCCOCCNC(=O)CC[C@H](NC(=O)CCCCCCCCCCCCCCCCCCC(=O)O)C(=O)O)C(=O)N[C@@H](Cc1c[nH]cn1)C(=O)N[C@@H](CCC(N)=O)C(=O)NC(C)(C)C(=O)N[C@@H](CC(=O)O)C(=O)N[C@@H](Cc1ccccc1)C(=O)N[C@H](C(=O)N[C@@H](CCC(=O)O)C(=O)N[C@@H](Cc1ccncc1)C(=O)N[C@@H](CC(C)C)C(=O)N[C@@H](CC(C)C)C(=O)N[C@@H](CCC(=O)O)C(=O)N[C@H](C(=O)NCC(=O)N1CCC[C@H]1C(=O)N[C@@H](CO)C(=O)N[C@@H](CO)C(=O)NCC(=O)N[C@@H](C)C(=O)N1CCC[C@H]1C(=O)N1CCC[C@H]1C(=O)N1CCC[C@H]1C(=O)N[C@@H](CO)C(N)=O)[C@@H](C)O)C(C)C)[C@@H](C)CC` [Example 80] (H-Y[Aib]EGTFISDYSI[αMeL]LD[Orn]K([AEEA-AEEA-γGlu-C20 diacid])HQ[Aib]DFVE[4Pal]LLETGPSSGAPPPS-NH2), the EC50 is 0.0777 nM in experiment [1], over 5000 nM in experiment [2] and over 5000 nM in experiment [3].
For the molecule `CC[C@H](C)[C@H](NC(=O)[C@H](Cc1ccccc1)NC(=O)[C@@H](NC(=O)CNC(=O)[C@H](CCC(=O)O)NC(=O)C(C)(C)NC(=O)[C@@H](N)Cc1ccc(O)cc1)[C@@H](C)O)C(=O)N[C@@H](CO)C(=O)N[C@@H](CC(=O)O)C(=O)N[C@@H](Cc1ccc(O)cc1)C(=O)N[C@@H](CO)C(=O)N[C@H](C(=O)N[C@@](C)(CC(C)C)C(=O)N[C@@H](CC(C)C)C(=O)N[C@@H](CC(=O)O)C(=O)N[C@@H](CCCN)C(=O)N[C@@H](CCCCNC(=O)COCCOCCNC(=O)COCCOCCNC(=O)CC[C@H](NC(=O)CCCCCCCCCCCCCCCCCCC(=O)O)C(=O)O)C(=O)N[C@@H](Cc1c[nH]cn1)C(=O)N[C@@H](CCC(N)=O)C(=O)NC(C)(C)C(=O)N[C@@H](CC(=O)O)C(=O)N[C@@H](Cc1ccccc1)C(=O)N[C@H](C(=O)N[C@@H](CCC(=O)O)C(=O)N[C@@H](Cc1ccncc1)C(=O)N[C@@H](CC(C)C)C(=O)N[C@@H](CC(C)C)C(=O)N[C@@H](CCC(=O)O)C(=O)N[C@@H](CCC(N)=O)C(=O)NCC(=O)N1CCC[C@H]1C(=O)N[C@@H](CO)C(=O)N[C@@H](CO)C(=O)NCC(=O)N[C@@H](C)C(=O)N1CCC[C@H]1C(=O)N1CCC[C@H]1C(=O)N1CCC[C@H]1C(=O)N[C@@H](CO)C(N)=O)C(C)C)[C@@H](C)CC` [Example 81] (H-Y[Aib]EGTFISDYSI[αMeL]LD[Orn]K([AEEA-AEEA-γGlu-C20 diacid])HQ[Aib]DFVE[4Pal]LLEQGPSSGAPPPS-NH2), the EC50 in experiment [1] is 0.0282 nM; in experiment [2], over 5000 nM; in experiment [3], over 5000 nM.
`CC[C@H](C)[C@H](NC(=O)[C@H](Cc1ccccc1)NC(=O)[C@@H](NC(=O)CNC(=O)[C@H](CCC(=O)O)NC(=O)C(C)(C)NC(=O)[C@@H](N)Cc1ccc(O)cc1)[C@@H](C)O)C(=O)N[C@@H](CO)C(=O)N[C@@H](CC(=O)O)C(=O)N[C@@H](Cc1ccc(O)cc1)C(=O)N[C@@H](CO)C(=O)N[C@H](C(=O)N[C@@](C)(CC(C)C)C(=O)N[C@@H](CC(C)C)C(=O)N[C@@H](CC(=O)O)C(=O)N[C@@H](CCCN)C(=O)N[C@@H](CCCCNC(=O)COCCOCCNC(=O)COCCOCCNC(=O)CC[C@H](NC(=O)CCCCCCCCCCCCCCCCCCC(=O)O)C(=O)O)C(=O)N[C@@H](Cc1c[nH]cn1)C(=O)N[C@@H](CCC(N)=O)C(=O)NC(C)(C)C(=O)N[C@@H](CC(=O)O)C(=O)N[C@@H](Cc1ccccc1)C(=O)N[C@H](C(=O)N[C@@H](CCC(=O)O)C(=O)N[C@@H](Cc1ccncc1)C(=O)N[C@@H](CC(C)C)C(=O)N[C@@H](CC(C)C)C(=O)N[C@@H](CCC(=O)O)C(=O)NCC(=O)NCC(=O)N1CCC[C@H]1C(=O)N[C@@H](CO)C(=O)N[C@@H](CO)C(=O)NCC(=O)N[C@@H](C)C(=O)N1CCC[C@H]1C(=O)N1CCC[C@H]1C(=O)N1CCC[C@H]1C(=O)N[C@@H](CO)C(N)=O)C(C)C)[C@@H](C)CC` [Example 82] (H-Y[Aib]EGTFISDYSI[αMeL]LD[Orn]K([AEEA-AEEA-γGlu-C20 diacid])HQ[Aib]DFVE[4Pal]LLEGGPSSGAPPPS-NH2): the concentration for a half-maximal effect (EC50) was 0.0391 nM in experiment [1], 3790 nM in experiment [2] and over 5000 nM in experiment [3].
The matching figures for `CC[C@H](C)[C@H](NC(=O)[C@H](Cc1ccccc1)NC(=O)[C@@H](NC(=O)CNC(=O)[C@H](CCC(=O)O)NC(=O)C(C)(C)NC(=O)[C@@H](N)Cc1ccc(O)cc1)[C@@H](C)O)C(=O)N[C@@H](CO)C(=O)N[C@@H](CC(=O)O)C(=O)N[C@@H](Cc1ccc(O)cc1)C(=O)N[C@@H](CO)C(=O)N[C@H](C(=O)N[C@@](C)(CC(C)C)C(=O)N[C@@H](CC(C)C)C(=O)N[C@@H](CC(=O)O)C(=O)N[C@@H](CCC(=O)O)C(=O)N[C@@H](CCCCNC(=O)COCCOCCNC(=O)COCCOCCNC(=O)CC[C@H](NC(=O)CCCCCCCCCCCCCCCCCCC(=O)O)C(=O)O)C(=O)N[C@@H](Cc1c[nH]cn1)C(=O)N[C@@H](CCC(N)=O)C(=O)NC(C)(C)C(=O)N[C@@H](CC(=O)O)C(=O)N[C@@H](Cc1ccccc1)C(=O)N[C@H](C(=O)N[C@@H](CCC(=O)O)C(=O)N[C@@H](Cc1ccncc1)C(=O)N[C@@H](CC(C)C)C(=O)N[C@@H](CC(C)C)C(=O)N[C@@H](C)C(=O)N[C@H](C(=O)NCC(=O)N1CCC[C@H]1C(=O)N[C@@H](CO)C(=O)N[C@@H](CO)C(=O)NCC(=O)N[C@@H](C)C(=O)N1CCC[C@H]1C(=O)N1CCC[C@H]1C(=O)N1CCC[C@H]1C(=O)N[C@@H](CO)C(N)=O)[C@@H](C)O)C(C)C)[C@@H](C)CC` [Example 83] (H-Y[Aib]EGTFISDYSI[αMeL]LDEK([AEEA-AEEA-γGlu-C20 diacid])HQ[Aib]DFVE[4Pal]LLATGPSSGAPPPS-NH2): 0.0432 nM, over 5000 nM and over 5000 nM.

For the origin of these results see patent US12723063B2, “GIPR-agonist compounds” (Eli Lilly and Company, priority 2019, dated 2026).
